Reference: ChEMBL document CHEMBL4828763, “Discovery of Potent and Selective CDK9 Degraders for Targeting Transcription Regulation in Triple-Negative Breast Cancer” (J Med Chem, 2021)
pIC50: −log10 of the molar value. The source made the active and inactive calls. The rule behind the calls is not given here.

How the values were obtained:
[1] = molecular target: Protein cereblon/Cyclin-dependent kinase 5 (Homo sapiens) (UniProt Q00535+Q96SW2); assay: Protac activity at CRBN/CDK5 in human MDA-MB-231 cells assessed as induction of degradation of CDK5 at 100 to 500 nM incubated for 4 to 8 hrs by Western blot analysis; format: cell-based; details: dose 100-500 nM, time 4-8 hrs
Chain of Protein cereblon/Cyclin-dependent kinase 5 (Homo sapiens) (Q00535 whole entry, looked up): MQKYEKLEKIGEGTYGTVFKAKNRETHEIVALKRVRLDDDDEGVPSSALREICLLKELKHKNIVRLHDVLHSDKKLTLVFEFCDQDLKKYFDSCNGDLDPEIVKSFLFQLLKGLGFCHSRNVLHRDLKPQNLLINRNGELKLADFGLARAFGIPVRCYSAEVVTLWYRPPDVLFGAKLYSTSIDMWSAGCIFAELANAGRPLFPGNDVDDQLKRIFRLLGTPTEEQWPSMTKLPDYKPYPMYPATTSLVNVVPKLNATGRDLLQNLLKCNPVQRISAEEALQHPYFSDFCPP
Chain of Protein cereblon/Cyclin-dependent kinase 5 (Homo sapiens) (Q96SW2 whole entry, looked up): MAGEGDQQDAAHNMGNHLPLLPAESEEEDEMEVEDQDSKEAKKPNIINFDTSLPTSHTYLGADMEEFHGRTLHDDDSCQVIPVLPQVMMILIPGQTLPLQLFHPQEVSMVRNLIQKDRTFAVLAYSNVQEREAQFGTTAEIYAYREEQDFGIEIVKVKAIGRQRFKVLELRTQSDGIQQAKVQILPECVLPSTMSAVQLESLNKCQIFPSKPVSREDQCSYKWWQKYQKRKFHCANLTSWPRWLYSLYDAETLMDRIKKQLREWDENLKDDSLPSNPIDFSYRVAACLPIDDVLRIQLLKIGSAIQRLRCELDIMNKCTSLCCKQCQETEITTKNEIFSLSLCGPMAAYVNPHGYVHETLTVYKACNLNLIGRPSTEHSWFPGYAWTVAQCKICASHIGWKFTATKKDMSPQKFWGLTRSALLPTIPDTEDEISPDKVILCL

[2] = tested on: MDA-MB-231; assay: Antitumor activity against human MDA-MB-231 cells xenografted in BALB/c mouse model assessed as decrease in tumor volume at 5 mg/kg, intratumoral injection daily for 7 days relative to control; format: functional; parameters: scale not given: the % may be the effect or the level left; details: time 7 day
[3] = molecular target: Protein cereblon/Cyclin-dependent kinase 9 (Homo sapiens) (UniProt P50750+Q96SW2); assay: Protac activity at CRBN/CDK9 in human MDA-MB-231 cells assessed as induction of degradation of CDK9 pretreated with MLN4924 at 500 nM incubated for 8 hrs by Western blot analysis; format: cell-based
Chain of Protein cereblon/Cyclin-dependent kinase 9 (Homo sapiens) (P50750 whole entry, looked up): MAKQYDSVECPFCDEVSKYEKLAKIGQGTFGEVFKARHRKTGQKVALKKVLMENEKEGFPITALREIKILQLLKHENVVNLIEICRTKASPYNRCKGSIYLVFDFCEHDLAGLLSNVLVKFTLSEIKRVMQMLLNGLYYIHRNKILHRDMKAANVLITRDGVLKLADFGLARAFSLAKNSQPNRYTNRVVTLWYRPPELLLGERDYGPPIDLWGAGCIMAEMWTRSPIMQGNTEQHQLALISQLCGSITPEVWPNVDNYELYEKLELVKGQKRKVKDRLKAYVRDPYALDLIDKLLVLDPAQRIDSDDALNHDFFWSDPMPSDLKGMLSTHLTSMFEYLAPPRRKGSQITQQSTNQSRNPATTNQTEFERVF
Chain of Protein cereblon/Cyclin-dependent kinase 9 (Homo sapiens) (Q96SW2 whole entry, looked up): as the sequence (Q96SW2 whole entry, looked up) above

[4] = molecular target: Protein cereblon/Cyclin-dependent kinase 7 (Homo sapiens) (UniProt P50613+Q96SW2); assay: Protac activity at CRBN/CDK7 in human MDA-MB-231 cells assessed as induction of degradation of CDK7 at 100 to 500 nM incubated for 4 to 8 hrs by Western blot analysis; format: cell-based; details: dose 100-500 nM, time 4-8 hrs
Chain of Protein cereblon/Cyclin-dependent kinase 7 (Homo sapiens) (P50613 whole entry, looked up): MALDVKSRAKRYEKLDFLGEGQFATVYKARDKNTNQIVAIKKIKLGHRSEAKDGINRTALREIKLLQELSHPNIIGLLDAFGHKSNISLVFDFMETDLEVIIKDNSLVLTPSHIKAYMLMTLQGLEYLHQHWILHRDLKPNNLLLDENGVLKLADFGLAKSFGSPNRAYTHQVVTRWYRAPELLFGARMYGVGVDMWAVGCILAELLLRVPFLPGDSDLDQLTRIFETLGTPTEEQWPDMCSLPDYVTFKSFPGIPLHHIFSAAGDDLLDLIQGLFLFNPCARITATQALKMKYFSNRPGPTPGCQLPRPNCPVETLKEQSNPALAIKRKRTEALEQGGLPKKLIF
Chain of Protein cereblon/Cyclin-dependent kinase 7 (Homo sapiens) (Q96SW2 whole entry, looked up): as the sequence (Q96SW2 whole entry, looked up) above

[5] = tested on: Tumour; assay: Reduction in CDK9 protein level in tumor of BALB/c mouse xenografted with human MDA-MB-231 cells at 5 mg/kg, intratumoral injection daily for 7 days by immunohistochemistry staining analysis relative to control; format: functional; details: MDA-MB-231, Neoplasm, 168 h, time 7 day
[6] = tested on: Tumour; assay: Reduction in MYC protein level in tumor of BALB/c mouse xenografted with human MDA-MB-231 cells at 2.5 mg/kg, intratumoral injection daily for 7 days by immunohistochemistry staining analysis relative to control; format: functional; details: MDA-MB-231, Neoplasm, 168 h, time 7 day
[7] = tested on: MDA-MB-231; assay: Antitumor activity against human MDA-MB-231 cells xenografted in BALB/c mouse model assessed as induction of CDK9 degradation in tumor tissue at 5 mg/kg, intratumoral injection daily for 7 days by Western blot analysis relative to control; format: functional, organism-based; details: time 7.0 day
[8] = molecular target: Protein cereblon/Cyclin-dependent kinase 6 (Homo sapiens) (UniProt Q00534+Q96SW2); assay: Protac activity at CRBN/CDK6 in human MDA-MB-231 cells assessed as induction of degradation of CDK6 at 100 to 500 nM incubated for 4 to 8 hrs by Western blot analysis; format: cell-based; details: dose 100-500 nM, time 4-8 hrs
Chain of Protein cereblon/Cyclin-dependent kinase 6 (Homo sapiens) (Q00534 whole entry, looked up): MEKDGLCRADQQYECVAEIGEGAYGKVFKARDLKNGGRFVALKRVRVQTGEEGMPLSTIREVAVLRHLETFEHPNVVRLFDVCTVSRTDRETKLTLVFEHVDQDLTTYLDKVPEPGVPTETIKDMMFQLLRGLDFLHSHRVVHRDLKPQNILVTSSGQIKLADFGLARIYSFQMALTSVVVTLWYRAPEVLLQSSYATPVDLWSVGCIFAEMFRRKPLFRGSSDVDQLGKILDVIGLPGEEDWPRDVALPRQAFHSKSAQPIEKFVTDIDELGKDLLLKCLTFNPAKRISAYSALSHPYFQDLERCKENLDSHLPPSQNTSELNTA
Chain of Protein cereblon/Cyclin-dependent kinase 6 (Homo sapiens) (Q96SW2 whole entry, looked up): as the sequence (Q96SW2 whole entry, looked up) above

[9] = tested on: Tumour; assay: Reduction in Ki-67 protein level in tumor of BALB/c mouse xenografted with human MDA-MB-231 cells at 2.5 mg/kg, intratumoral injection daily for 7 days by immunohistochemistry staining analysis relative to control; format: functional; details: MDA-MB-231, Neoplasm, 168 h, time 7 day
[10] = molecular target: Protein cereblon/Cyclin-dependent kinase 1 (Homo sapiens) (UniProt P06493+Q96SW2); assay: Protac activity at CRBN/CDK1 in human MDA-MB-231 cells assessed as induction of degradation of CDK1 at 100 to 500 nM incubated for 4 to 8 hrs by Western blot analysis; format: cell-based; details: dose 100-500 nM, time 4-8 hrs
Chain of Protein cereblon/Cyclin-dependent kinase 1 (Homo sapiens) (P06493 whole entry, looked up): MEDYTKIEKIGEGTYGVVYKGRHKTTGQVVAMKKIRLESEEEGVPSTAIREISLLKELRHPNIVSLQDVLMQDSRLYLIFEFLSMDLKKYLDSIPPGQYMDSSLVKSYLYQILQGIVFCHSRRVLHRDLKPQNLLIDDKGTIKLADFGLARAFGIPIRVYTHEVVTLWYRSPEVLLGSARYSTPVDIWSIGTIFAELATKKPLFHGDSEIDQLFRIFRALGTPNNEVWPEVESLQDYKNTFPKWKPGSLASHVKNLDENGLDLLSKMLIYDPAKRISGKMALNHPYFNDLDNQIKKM
Chain of Protein cereblon/Cyclin-dependent kinase 1 (Homo sapiens) (Q96SW2 whole entry, looked up): as the sequence (Q96SW2 whole entry, looked up) above

[11] = tested on: Tumour; assay: Induction of CDK9 degradation in tumor of human MDA-MB-231 cells xenografted in BALB/c mouse model at 0.15 mM intratumoral injection measured after 16 hrs by Western blot analysis relative to control; format: functional, Neoplasm
[12] = molecular target: Protein cereblon/Cyclin-dependent kinase 4 (Homo sapiens) (UniProt P11802+Q96SW2); assay: Protac activity at CRBN/CDK4 in human MDA-MB-231 cells assessed as induction of degradation of CDK4 at 100 to 500 nM incubated for 4 to 8 hrs by Western blot analysis; format: cell-based; details: dose 100-500 nM, time 4-8 hrs
Chain of Protein cereblon/Cyclin-dependent kinase 4 (Homo sapiens) (P11802 2-303 limits assumed): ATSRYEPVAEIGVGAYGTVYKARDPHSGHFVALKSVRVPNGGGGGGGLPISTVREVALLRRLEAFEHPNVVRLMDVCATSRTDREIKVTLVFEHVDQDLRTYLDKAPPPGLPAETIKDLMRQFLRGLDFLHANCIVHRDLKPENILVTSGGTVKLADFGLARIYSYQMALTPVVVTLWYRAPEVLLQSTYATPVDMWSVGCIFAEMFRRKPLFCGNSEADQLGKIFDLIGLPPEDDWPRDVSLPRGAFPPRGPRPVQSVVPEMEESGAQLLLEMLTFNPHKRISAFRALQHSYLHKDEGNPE
Chain of Protein cereblon/Cyclin-dependent kinase 4 (Homo sapiens) (Q96SW2 whole entry partner): as the sequence (Q96SW2 whole entry, looked up) above

[13] = tested on: Tumour; assay: Reduction in CDK7 protein level in tumor of BALB/c mouse xenografted with human MDA-MB-231 cells at 2.5 mg/kg, intratumoral injection daily for 7 days by immunohistochemistry staining analysis relative to control; format: functional; details: MDA-MB-231, Neoplasm, 168 h, time 7 day
[14] = tested on: Tumour; assay: Reduction in MYC protein level in tumor of BALB/c mouse xenografted with human MDA-MB-231 cells at 5 mg/kg, intratumoral injection daily for 7 days by immunohistochemistry staining analysis relative to control; format: functional; details: MDA-MB-231, Neoplasm, 168 h, time 7 day
[15] = tested on: Tumour; assay: Effect on CDK7 protein level in tumor of BALB/c mouse xenografted with human MDA-MB-231 cells at 2.5 to 5 mg/kg, intratumoral injection daily for 7 days by Western blot analysis relative to control; format: functional, organism-based; details: Neoplasm, dose 2.5-5 mg/kg, time 7.0 day
[16] = molecular target: Protein cereblon/Cyclin-dependent kinase 2 (Homo sapiens) (UniProt P24941+Q96SW2); assay: Protac activity at CRBN/CDK2 in human MDA-MB-231 cells assessed as induction of degradation of CDK2 at 100 to 500 nM incubated for 4 to 8 hrs by Western blot analysis; format: cell-based; details: dose 100-500 nM, time 4-8 hrs
[17] = Toxicity in BALB/c mouse xenografted with human MDA-MB-231 cells assessed as body weight loss at 2.5 mg/kg, intratumoral injection daily for 7 days; format: organism-based; details: in vivo, other, 168 h, time 7 day
[18] = Toxicity in BALB/c mouse xenografted with human MDA-MB-231 cells assessed as body weight loss at 5 mg/kg, intratumoral injection daily for 7 days; format: organism-based; details: in vivo, other, 168 h, time 7 day
[19] = molecular target: Protein cereblon/Eukaryotic peptide chain release factor GTP-binding subunit ERF3A (Homo sapiens) (UniProt Q96SW2+P15170); assay: Protac activity at CRBN/GSPT1 in human MDA-MB-231 cells assessed as induction of degradation of GSPT1 incubated for 4 to 8 hrs by Western blot analysis; format: cell-based; details: time 4-8 hrs
Chain of Protein cereblon/Eukaryotic peptide chain release factor GTP-binding subunit ERF3A (Homo sapiens) (P15170 whole entry, looked up): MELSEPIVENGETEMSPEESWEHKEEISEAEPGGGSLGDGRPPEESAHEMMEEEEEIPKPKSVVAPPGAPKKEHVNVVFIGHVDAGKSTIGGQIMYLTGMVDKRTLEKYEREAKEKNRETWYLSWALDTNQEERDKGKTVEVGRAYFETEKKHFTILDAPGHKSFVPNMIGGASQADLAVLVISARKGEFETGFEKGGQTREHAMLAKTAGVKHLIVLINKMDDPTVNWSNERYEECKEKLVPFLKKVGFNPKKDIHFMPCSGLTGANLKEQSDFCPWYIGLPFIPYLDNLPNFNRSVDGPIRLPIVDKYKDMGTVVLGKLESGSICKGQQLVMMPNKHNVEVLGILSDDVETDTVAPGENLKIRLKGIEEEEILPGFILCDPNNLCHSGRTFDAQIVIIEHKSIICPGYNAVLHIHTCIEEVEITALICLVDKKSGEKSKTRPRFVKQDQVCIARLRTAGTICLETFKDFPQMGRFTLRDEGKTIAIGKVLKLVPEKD
Chain of Protein cereblon/Eukaryotic peptide chain release factor GTP-binding subunit ERF3A (Homo sapiens) (Q96SW2 whole entry, looked up): as the sequence (Q96SW2 whole entry, looked up) above

[20] = tested on: Tumour; assay: Reduction in CDK9 protein level in tumor of BALB/c mouse xenografted with human MDA-MB-231 cells at 2.5 mg/kg, intratumoral injection daily for 7 days by immunohistochemistry staining analysis relative to control; format: functional; details: MDA-MB-231, Neoplasm, 168 h, time 7 day
[21] = tested on: Tumour; assay: Reduction in Ki-67 protein level in tumor of BALB/c mouse xenografted with human MDA-MB-231 cells at 5 mg/kg, intratumoral injection daily for 7 days by immunohistochemistry staining analysis relative to control; format: functional; details: MDA-MB-231, Neoplasm, 168 h, time 7 day
[22] = tested on: MDA-MB-231; assay: Antitumor activity against human MDA-MB-231 cells xenografted in BALB/c mouse model assessed as decrease in tumor volume at 2.5 mg/kg, intratumoral injection daily for 7 days relative to control; format: functional; parameters: scale not given: the % may be the effect or the level left; details: time 7 day
[23] = tested on: Tumour; assay: Reduction in CDK7 protein level in tumor of BALB/c mouse xenografted with human MDA-MB-231 cells at 5 mg/kg, intratumoral injection daily for 7 days by immunohistochemistry staining analysis relative to control; format: functional; details: MDA-MB-231, Neoplasm, 168 h, time 7 day
[24] = tested on: Tumour; assay: Induction of CDK7 degradation in tumor of human MDA-MB-231 cells xenografted in BALB/c mouse model at 0.15 mM intratumoral injection measured after 16 hrs by Western blot analysis relative to control; format: functional, tissue-based; details: Neoplasm
[25] = tested on: BT-549; assay: Growth inhibition of human BT-549 cells assessed as cell viability measured after 4 days by WST8 assay; format: functional, cell-based; details: BT-549, 96 h
[26] = tested on: MDA-MB-468; assay: Growth inhibition of human MDA-MB-468 cells assessed as cell viability measured after 4 days by WST8 assay; format: functional, cell-based; details: MDA-MB-468, 96 h
[27] = tested on: MDA-MB-231; assay: Growth inhibition of human MDA-MB-231 cells assessed as cell viability measured after 4 days by WST8 assay; format: functional, cell-based; details: MDA-MB-231, 96 h
[28] = tested on: MDA-MB-231; assay: Antitumor activity against human MDA-MB-231 cells xenografted in BALB/c mouse model assessed as induction of CDK9 degradation in tumor tissue at 2.5 mg/kg, intratumoral injection daily for 7 days by Western blot analysis relative to control; format: functional, organism-based; details: time 7.0 day

**Q.** Which Activity [1] does the source give for `CC[C@@H](CO)Nc1cc(NCc2ccc(NC(=O)N3CCN(CCCCCc4cccc5c4CN(C4CCC(=O)NC4=O)C5=O)CC3)cc2)n2ncc(C(C)C)c2n1` (stereo partly drawn) here?
**A.** inactive

**Q.** What about the Activity [2] of the same compound?
**A.** 50%

**Q.** What about the Activity [3] of the same compound?
**A.** Active

**Q.** And the Activity [4]?
**A.** inactive

**Q.** What about the inhibition in vivo at 5 mg/kg [5] of the same compound?
**A.** 90.8%

**Q.** And the inhibition in vivo at 2.5 mg/kg [6]?
**A.** 41%

**Q.** And the Activity [7]?
**A.** Active

**Q.** What about the Activity [8] of the same compound?
**A.** inactive

**Q.** What about the inhibition in vivo at 2.5 mg/kg [9] of the same compound?
**A.** 32.8%

**Q.** What about the Activity [10] of the same compound?
**A.** inactive

**Q.** What about the Activity [11] of the same compound?
**A.** 54%

**Q.** What about the Activity [12] of the same compound?
**A.** inactive

**Q.** And the inhibition in vivo at 2.5 mg/kg [13]?
**A.** 4%

**Q.** What about the inhibition in vivo at 5 mg/kg [14] of the same compound?
**A.** 76.7%

**Q.** And the Activity [15]?
**A.** inactive

**Q.** And the Activity [16]?
**A.** inactive

**Q.** What about the Activity [17] of the same compound?
**A.** 12.8%

**Q.** What about the Activity [18] of the same compound?
**A.** 13.1%

**Q.** What about the Activity [19] of the same compound?
**A.** inactive

**Q.** And the inhibition in vivo at 2.5 mg/kg [20]?
**A.** 62.3%

**Q.** And the inhibition in vivo at 5 mg/kg [21]?
**A.** 69.7%

**Q.** What about the Activity [22] of the same compound?
**A.** 50%

**Q.** And the inhibition in vivo at 5 mg/kg [23]?
**A.** 12.4%

**Q.** What about the Activity [24] of the same compound?
**A.** inactive

**Q.** What about the pIC50 [25] of the same compound?
**A.** 4.87

**Q.** And the pIC50 [26]?
**A.** 4.82

**Q.** What about the pIC50 [27] of the same compound?
**A.** 5.41

**Q.** What about the Activity [28] of the same compound?
**A.** Active
